# From the supplement of paper PMC10307832
# How the values were obtained:
# Test in all cases: relative viability (nuclei count vs DMSO), 5 days (fraction); higher = more cells survive
# [1] = compound: CC1=C(C(=NN1)C)CC2=C(C3=C(S2)N(C(=O)N(C3=O)C)CC(C)C)C(=O)N4C[C@@H](CO4)O + CC1(C)CCC(c2ccc(Cl)cc2)=C(CN2CCN(c3ccc(C(=O)NS(=O)(=O)c4ccc(N[C@H](CCN5CCOCC5)CSc5ccccc5)c(S(=O)(=O)C(F)(F)F)c4)cc3)CC2)C1 [Navitoclax] (partner 0.5 µM)
# Procedure, shortened: (§1)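 Lung cancer cell lines in 1536-well plates got either a single drug or a fixed anchor-drug dose together with five library-drug doses (not always all listed) in √10 steps, by pin tool, on the day after seeding. Nuclei were counted after 5 days, and relative viability is the treated-to-vehicle ratio of nuclei counts. Values are medians of duplicate plates.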
# [2] = compound: CC1=C(C(=NN1)C)CC2=C(C3=C(S2)N(C(=O)N(C3=O)C)CC(C)C)C(=O)N4C[C@@H](CO4)O + CC(=O)c1c(C)c2cnc(Nc3ccc(N4CCNCC4)cn3)nc2n(C2CCCC2)c1=O [Palbociclib] (partner 0.5 µM)
# Procedure, shortened: as §1
# IDH-C35 + Crizotinib = compound: Cc1ccccc1C(C(=O)NC1CCCCC1)N(C(=O)Cn1ccnc1C)c1cccc(F)c1 [IDH-C35] + C[C@@H](Oc1cc(-c2cnn(C3CCNCC3)c2)cnc1N)c1c(Cl)ccc(F)c1Cl [Crizotinib] (partner 1 µM)
# Procedure, shortened: as §1
# IDH-C35 + Linsitinib = compound: Cc1ccccc1C(C(=O)NC1CCCCC1)N(C(=O)Cn1ccnc1C)c1cccc(F)c1 [IDH-C35] + C[C@]1(O)C[C@@H](c2nc(-c3ccc4ccc(-c5ccccc5)nc4c3)c3c(N)nccn32)C1 [Linsitinib] (partner 1 µM)
# Procedure, shortened: as §1
Cell Line,relative viability ([1]; first compound 0.0025 µM),relative viability ([1]; first compound 0.007906 µM),relative viability ([1]; first compound 0.025 µM),relative viability ([1]; first compound 0.07906 µM),relative viability ([1]; first compound 0.25 µM),relative viability ([2]; first compound 0.0025 µM),relative viability ([2]; first compound 0.007906 µM),relative viability ([2]; first compound 0.025 µM),relative viability ([2]; first compound 0.07906 µM),relative viability ([2]; first compound 0.25 µM),relative viability (IDH-C35 + Crizotinib; first compound 0.08 µM),relative viability (IDH-C35 + Crizotinib; first compound 0.253 µM),relative viability (IDH-C35 + Crizotinib; first compound 0.8 µM),relative viability (IDH-C35 + Crizotinib; first compound 8 µM),relative viability (IDH-C35 + Linsitinib; first compound 0.08 µM),relative viability (IDH-C35 + Linsitinib; first compound 0.253 µM),relative viability (IDH-C35 + Linsitinib; first compound 0.8 µM),relative viability (IDH-C35 + Linsitinib; first compound 2.53 µM),relative viability (IDH-C35 + Linsitinib; first compound 8 µM),relative viability (IDH-C35 + Crizotinib; first compound 2.53 µM)
LC-2-ad,0.459,0.461,0.463,0.481,0.58,0.46,0.518,0.456,0.467,0.55,0.463,0.454,0.426,0.485,0.867,0.829,0.774,0.875,0.886,–
LCLC-97TM1,0.394,0.613,0.404,0.373,0.467,0.262,0.266,0.279,0.196,0.247,0.366,0.281,0.291,0.293,0.209,0.194,0.179,–,0.193,–
LK-2,0.884,0.852,0.746,0.983,0.949,0.642,0.715,0.646,0.626,0.457,0.223,0.23,0.215,0.233,0.679,0.465,0.43,0.746,0.619,0.209
LOU-NH91,0.773,0.604,0.776,0.809,0.788,0.535,0.565,0.508,0.496,0.526,0.741,0.754,0.722,0.751,0.944,0.998,0.968,0.927,0.973,0.743
LU99A,0.74,0.887,0.76,0.845,0.458,0.476,0.493,0.41,0.436,0.391,0.585,0.612,0.587,0.539,0.569,0.536,0.506,0.593,0.6,0.578
LXF-289,0.885,0.904,0.94,0.935,1,0.525,0.605,0.574,0.586,0.613,0.794,0.774,0.771,0.798,0.94,0.971,0.936,0.949,0.956,0.798
NCI-H23,0.908,0.904,0.807,1.02,0.901,0.508,0.639,0.559,0.518,0.665,0.488,0.654,0.488,0.432,0.514,0.541,0.541,0.523,0.505,0.507
NCI-H322M,1.22,1.18,1.18,1.29,1.06,0.557,0.467,0.536,0.441,0.505,0.863,0.961,0.91,1.02,0.965,0.878,0.81,0.95,0.794,0.931
NCI-H441,0.473,0.577,0.686,0.763,0.678,0.245,0.217,0.255,0.237,0.215,0.964,0.673,0.649,0.749,0.589,0.518,0.404,0.651,0.633,0.703
NCI-H460,1.19,1.26,0.994,1.13,1.34,0.181,0.199,0.204,0.226,0.217,1,0.989,0.782,0.955,0.909,0.872,0.843,0.749,0.663,0.814
NCI-H520,1.22,1.16,0.654,0.558,0.683,0.256,0.225,0.259,0.239,0.204,0.785,0.812,0.757,0.796,0.915,0.969,1,0.888,0.907,0.775
NCI-H647,1.15,1.43,1.01,1.32,1.42,0.376,0.409,0.441,0.518,0.287,0.876,1.02,1.05,0.98,1.03,1.29,1.18,1.1,1.1,1.07
NCI-H727,0.44,0.36,0.344,0.364,0.439,0.697,0.655,0.676,0.682,0.679,0.853,0.734,0.826,0.954,0.202,0.248,0.328,0.249,0.254,0.916
NCI-H838,1.22,1.24,1.12,1.16,1.25,0.206,0.193,0.182,0.275,0.182,0.834,0.787,0.812,0.799,1.08,0.959,0.949,1.04,0.943,0.77
NCI-H1355,0.955,0.96,1.02,0.853,0.894,0.413,0.459,0.408,0.401,0.414,1.08,1.03,1.03,1.07,0.896,0.859,0.848,0.773,0.892,1.01
NCI-H1437,1.16,1.2,1.08,1.1,1.09,0.357,0.348,0.284,0.296,0.303,0.979,0.913,0.907,0.796,0.998,1.14,0.989,1.14,1.03,0.874

Cell Line,relative viability ([1]; first compound 0.0025 µM),relative viability ([1]; first compound 0.007906 µM),relative viability ([1]; first compound 0.025 µM),relative viability ([1]; first compound 0.07906 µM),relative viability ([1]; first compound 0.25 µM),relative viability ([2]; first compound 0.0025 µM),relative viability ([2]; first compound 0.007906 µM),relative viability ([2]; first compound 0.025 µM),relative viability ([2]; first compound 0.07906 µM),relative viability ([2]; first compound 0.25 µM),relative viability (IDH-C35 + Crizotinib; first compound 0.08 µM),relative viability (IDH-C35 + Crizotinib; first compound 0.253 µM),relative viability (IDH-C35 + Crizotinib; first compound 0.8 µM),relative viability (IDH-C35 + Crizotinib; first compound 8 µM),relative viability (IDH-C35 + Linsitinib; first compound 0.08 µM),relative viability (IDH-C35 + Linsitinib; first compound 0.253 µM),relative viability (IDH-C35 + Linsitinib; first compound 0.8 µM),relative viability (IDH-C35 + Linsitinib; first compound 2.53 µM),relative viability (IDH-C35 + Linsitinib; first compound 8 µM),relative viability (IDH-C35 + Crizotinib; first compound 2.53 µM)
NCI-H1651,1.11,1.06,1.01,0.912,1.05,0.54,0.562,0.493,0.532,0.508,0.848,0.874,0.874,0.925,0.918,0.925,0.966,1.02,0.903,0.919
NCI-H1666,0.969,0.954,1.01,1.14,1.1,0.702,0.641,0.734,0.591,0.636,0.995,0.942,0.968,0.967,0.775,0.79,0.888,0.904,0.941,1
NCI-H1734,0.843,1.1,0.772,0.931,1.02,0.328,0.396,0.349,0.307,0.322,0.69,0.729,0.623,0.729,0.891,0.862,0.839,0.772,0.833,0.638
NCI-H1755,1.05,1.03,1,1,1.06,0.452,0.462,0.412,0.424,0.45,0.911,0.915,0.872,0.827,0.952,0.946,0.984,1.02,0.962,0.865
NCI-H1792,0.608,0.572,0.445,0.509,0.524,0.777,0.747,0.665,0.604,0.627,0.972,0.949,0.94,0.971,0.522,0.508,0.486,0.555,0.66,1.01
NCI-H1915,0.81,0.789,0.763,0.79,0.832,0.563,0.574,0.522,0.532,0.539,0.855,0.865,0.805,0.917,1.13,1.12,1.1,1.07,1.09,0.904
NCI-H1944,1.03,1.04,1.08,1.08,1.02,0.328,0.335,0.337,0.314,0.363,1.12,1.18,0.979,1.22,1.07,1.29,1.27,1.09,1.1,1.04
NCI-H1975,1.13,1.18,1.15,1.19,1.21,0.624,0.706,0.66,0.623,0.699,1,0.967,0.93,0.876,0.854,0.937,0.93,0.92,0.878,0.924
NCI-H1993,0.949,0.959,0.92,0.94,0.925,0.689,0.731,0.709,0.597,0.75,0.888,0.874,0.833,0.903,0.758,0.776,0.817,0.745,0.798,0.743
NCI-H2009,1.23,1.21,1.11,1.18,1.22,0.222,0.206,0.221,0.319,0.175,0.992,1,1.08,0.995,1.18,1.24,1.16,1.23,1.14,0.971
NCI-H2023,0.981,0.946,0.957,0.979,0.986,0.305,0.375,0.296,0.402,0.491,0.668,0.627,0.637,0.592,0.719,0.612,0.712,0.646,0.557,0.636
NCI-H2085,1.22,1.12,1.06,1.12,1.22,0.495,0.439,0.431,0.451,0.492,0.808,0.749,0.877,0.781,0.807,0.815,0.922,0.992,0.846,0.954
NCI-H2087,1.05,0.979,0.953,1.1,1.16,0.244,0.264,0.193,0.16,0.223,0.91,0.898,0.843,0.841,1.03,0.826,0.744,0.87,0.881,0.902
NCI-H2126,0.852,0.877,0.882,0.829,0.826,0.356,0.335,0.368,0.327,0.369,0.996,1.02,1,0.992,0.765,0.667,0.712,0.726,0.703,0.981
NCI-H2228,0.955,0.961,1.15,1,1.14,0.794,0.768,0.779,0.793,0.933,0.418,0.457,0.51,0.506,0.596,0.496,0.629,0.668,0.749,0.496
